Results taken from patent publication US10239843B2 (CANCER RESEARCH TECHNOLOGY LIMITED, priority 2014, dated 2019).
Where two headings read alike, the source gives them in different places.

What was measured:
PARG in HeLa cell line = test: PARG cell assay (PAR chain immunofluorescence after MMS); type: cell-based; settings: HeLa cells, MMS treatment, read-out: PARG Cell IC50
Method in brief: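 Nuclear poly(ADP-ribose) chains in HeLa cells are read by indirect immunofluorescence with a mouse anti-PAR antibody applied overnight at 4° C after fixing and permeabilising. Cells get 1 h of compound, then 50 μg/mL MMS (final) for another hour. PAR persisting at that point reflects PARG inhibition.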

Human Full Length PARG = Human Full Length PARG (Homo sapiens (Human), UniProt Q86W56); test: PARG enzyme assay (TR-FRET); type: biochemical; settings: read-out: PARG Biochem IC50
Human Full Length PARG, sequence (Q86W56 whole entry): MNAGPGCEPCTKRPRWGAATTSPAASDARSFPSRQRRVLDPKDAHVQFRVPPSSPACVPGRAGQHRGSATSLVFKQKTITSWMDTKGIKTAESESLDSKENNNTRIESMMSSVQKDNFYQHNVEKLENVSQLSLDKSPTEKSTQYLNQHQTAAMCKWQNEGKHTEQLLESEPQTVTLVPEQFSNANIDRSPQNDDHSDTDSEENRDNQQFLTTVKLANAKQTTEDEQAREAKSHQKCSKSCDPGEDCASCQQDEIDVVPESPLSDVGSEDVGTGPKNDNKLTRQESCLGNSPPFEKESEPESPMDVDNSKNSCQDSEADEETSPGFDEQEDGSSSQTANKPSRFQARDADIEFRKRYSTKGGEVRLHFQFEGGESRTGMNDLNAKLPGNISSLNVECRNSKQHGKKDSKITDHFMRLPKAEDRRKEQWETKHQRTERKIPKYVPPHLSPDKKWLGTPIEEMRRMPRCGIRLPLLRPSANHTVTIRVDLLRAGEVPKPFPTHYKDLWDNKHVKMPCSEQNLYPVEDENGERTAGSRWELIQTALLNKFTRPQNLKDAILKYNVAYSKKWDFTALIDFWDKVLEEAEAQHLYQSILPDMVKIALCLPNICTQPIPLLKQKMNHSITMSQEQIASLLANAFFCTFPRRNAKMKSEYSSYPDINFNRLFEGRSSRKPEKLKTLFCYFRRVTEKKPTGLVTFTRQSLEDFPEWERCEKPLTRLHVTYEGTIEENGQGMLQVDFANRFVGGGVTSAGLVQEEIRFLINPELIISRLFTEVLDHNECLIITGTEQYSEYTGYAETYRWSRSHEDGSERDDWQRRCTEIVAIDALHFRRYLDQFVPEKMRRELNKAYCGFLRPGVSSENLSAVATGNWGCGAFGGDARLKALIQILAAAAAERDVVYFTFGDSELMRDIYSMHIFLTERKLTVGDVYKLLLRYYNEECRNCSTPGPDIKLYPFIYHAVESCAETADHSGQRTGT

| IC50 (PARG in HeLa cell line; Homo sapiens) | IC50 (Human Full Length PARG) | IC50 (PARG in HeLa cell line) | Structure (SMILES) |
| --- | --- | --- | --- |
| 13200 nM | 5780 nM |  | CN(C)C(=O)c1cc(S(=O)(=O)NC2(C)CC2)cc2c(=O)n(Cc3cnn(C)c3)c(=O)[nH]c12 [Example 449, N,N-Dimethyl-6-[(1-methylcyclopropyl)sulfamoyl]-3-[(1-methylpyrazol-4-yl)methyl]-2,4-dioxo-1H-quinazoline-8-carboxamide] |
| 2520 nM | 213 nM |  | CNC(=O)c1cc(S(=O)(=O)NC2(C)CC2)cc2c(=O)n(Cc3cnn(C)c3)c(=O)[nH]c12 [Example 450, N-Methyl-6-[(1-methylcyclopropyl)sulfamoyl]-3-[(1-methylpyrazol-4-yl)methyl]-2,4-dioxo-1H-quinazoline-8-carboxamide] |
| 4500 nM | 3850 nM |  | CON(C)C(=O)c1cc(S(=O)(=O)NC2(C)CC2)cc2c(=O)n(Cc3cnn(C)c3)c(=O)[nH]c12 [Example 451, N-Methoxy-N-methyl-6-[(1-methylcyclopropyl)sulfamoyl]-3-[(1-methylpyrazol-4-yl)methyl]-2,4-dioxo-1H-quinazoline-8-carboxamide] |
| 280 nM | 202 nM |  | Cc1cc(Cn2c(=O)c3cc(S(=O)(=O)NC4(C)CC4)ccc3n(CC(C)(C)C#N)c2=O)on1 [Example 452, 1-(2-Cyano-2-methyl-propyl)-N-(1-methylcyclopropyl)-3-[(3-methylisoxazol-5-yl)methyl]-2,4-dioxo-quinazoline-6-sulfonamide] |
| 2070 nM | 728 nM |  | Cn1cc(CN2C(=O)c3cccc4cc(S(=O)(=O)NC5(C)CC5)cc(c34)C2=O)cn1 [Example 454, N-(1-Methylcyclopropyl)-2-[(1-methylpyrazol-4-yl)methyl]-1,3-dioxo-benzo[de]isoquinoline-5-sulfonamide] |
| 283 nM | 177 nM |  | CCn1c(=O)n(Cc2cnc(C)s2)c(=O)c2cc(S(=O)(=O)NC3(C#N)CC3)ccc21 [Example 455, N-(1-Cyanocyclopropyl)-1-ethyl-3-[(2-methylthiazol-5-yl)methyl]-2,4-dioxo-quinazoline-6-sulfonamide] |
|  | 4110 nM | 5600 nM | Cn1cc(Cn2c(=O)[nH]c3ccc(S(=O)(=O)NC4(C(F)F)CC4)cc3c2=O)cn1 [Example 456, N-[1-(Difluoromethyl)cyclopropyl]-3-[(1-methylpyrazol-4-yl)methyl]-2,4-dioxo-1H-quinazoline-6-sulfonamide] |
| 494 nM | 42 nM |  | Cc1ncc(Cn2c(=O)c3cc(S(=O)(=O)NC4(C#N)CC4)ccc3n(Cc3cnn(C)c3)c2=O)s1 [Example 457, N-(1-Cyanocyclopropyl)-1-[(1-methylpyrazol-4-yl)methyl]-3-[(2-methylthiazol-5-yl)methyl]-2,4-dioxo-quinazoline-6-sulfonamide] |
| 555 nM | 1070 nM |  | Cn1cc(Cn2c(=O)c3cc(S(=O)(=O)NC4(C(F)F)CC4)ccc3n(CC3CC3)c2=O)cn1 [Example 458, 1-(Cyclopropylmethyl)-N-[1-(difluoromethyl)cyclopropyl]-3-[(1-methylpyrazol-4-yl)methyl]-2,4-dioxo-quinazoline-6-sulfonamide] |
| 1250 nM | 325 nM |  | Cc1cc(Cn2c(=O)n(Cc3cnn(C)c3)c(=O)c3cc(S(=O)(=O)NC4(C(F)F)CC4)ccc32)n(C)n1 [Example 459, N-[1-(Difluoromethyl)cyclopropyl]-1-[(2,5-dimethylpyrazol-3-yl)methyl]-3-[(1-methylpyrazol-4-yl)methyl]-2,4-dioxo-quinazoline-6-sulfonamide] |
| 487 nM | 333 nM |  | Cn1cc(Cn2c(=O)c3cc(S(=O)(=O)NC4(C(F)F)CC4)ccc3n(Cc3ccc(F)cc3)c2=O)cn1 [Example 460, N-[1-(Difluoromethyl)cyclopropyl]-1-[(4-fluorophenyl)methyl]-3-[(1-methylpyrazol-4-yl)methyl]-2,4-dioxo-quinazoline-6-sulfonamide] |
| 30 nM | 39 nM |  | Cn1cc(Cn2c(=O)c3cc(S(=O)(=O)NC4(CF)CC4)ccc3n(CC3CCC3)c2=O)cn1 [Example 461, 1-(Cyclobutylmethyl)-N-[1-(fluoromethyl)cyclopropyl]-3-[(1-methylpyrazol-4-yl)methyl]-2,4-dioxo-quinazoline-6-sulfonamide] |
| 322 nM | 244 nM |  | COCCn1c(=O)n(Cc2cnn(C)c2)c(=O)c2cc(S(=O)(=O)NC3(CF)CC3)ccc21 [Example 462, N-[1-(Fluoromethyl)cyclopropyl]-1-(2-methoxyethyl)-3-[(1-methylpyrazol-4-yl)methyl]-2,4-dioxo-quinazoline-6-sulfonamide] |
| 1080 nM | 1040 nM |  | Cc1cc(CN2C(=O)c3cccc4cc(S(=O)(=O)NC5(C)CC5)cc(c34)C2=O)on1 [Example 464, N-(1-Methylcyclopropyl)-2-[(3-methylisoxazol-5-yl)methyl]-1,3-dioxo-benzo[de]isoquinoline-5-sulfonamide] |
| 188 nM | 283 nM |  | Cc1cc(Cn2c(=O)c3cc(S(=O)(=O)NC4(C)CC4)ccc3n(CC(C)(C)C)c2=O)on1 [Example 465, 1-(2,2-Dimethylpropyl)-N-(1-methylcyclopropyl)-3-[(3-methylisoxazol-5-yl)methyl]-2,4-dioxo-quinazoline-6-sulfonamide] |
|  | 274 nM | 232 nM | CC[C@H](C)Cn1c(=O)n(Cc2cc(C)no2)c(=O)c2cc(S(=O)(=O)NC3(C)CC3)ccc21 [Example 466, 1-[(2S)-2-Methylbutyl]-N-(1-methylcyclopropyl)-3-[(3-methylisoxazol-5-yl)methyl]-2,4-dioxo-quinazoline-6-sulfonamide] |
| 214 nM | 361 nM |  | Cc1cc(Cn2c(=O)c3cc(S(=O)(=O)NC4(C)CC4)ccc3n(CC3(C)CCC3)c2=O)on1 [Example 467, 1-[(1-Methylcyclobutyl)methyl]-N-(1-methylcyclopropyl)-3-[(3-methylisoxazol-5-yl)methyl]-2,4-dioxo-quinazoline-6-sulfonamide] |
| 1120 nM | 3980 nM |  | CCOC(=O)Cn1c(=O)c2cc(S(=O)(=O)NC3(C)CC3)ccc2n(C)c1=O [Example 468, Ethyl 2-[1-methyl-6-[(1-methylcyclopropyl)sulfamoyl]-2,4-dioxo-quinazolin-3-yl]acetate] |
| 663 nM | 1200 nM |  | CCC(=O)Cn1c(=O)c2cc(S(=O)(=O)NC3(C)CC3)ccc2n(C)c1=O [Example 469, 1-Methyl-N-(1-methylcyclopropyl)-2,4-dioxo-3-(2-oxobutyl)quinazoline-6-sulfonamide] |
| 266 nM | 546 nM |  | CCC(CC)Cn1c(=O)n(Cc2cc(C)no2)c(=O)c2cc(S(=O)(=O)NC3(C)CC3)ccc21 [Example 470, 1-(2-Ethylbutyl)-N-(1-methylcyclopropyl)-3-[(3-methylisoxazol-5-yl)methyl]-2,4-dioxo-quinazoline-6-sulfonamide] |
| 241 nM | 550 nM |  | COC1(Cn2c(=O)n(Cc3cc(C)no3)c(=O)c3cc(S(=O)(=O)NC4(C)CC4)ccc32)CCCC1 [Example 471, 1-[(1-Methoxycyclopentyl)methyl]-N-(1-methylcyclopropyl)-3-[(3-methylisoxazol-5-yl)methyl]-2,4-dioxo-quinazoline-6-sulfonamide] |
| 198 nM | 273 nM |  | Cc1cc(Cn2c(=O)c3cc(S(=O)(=O)NC4(C)CC4)ccc3n(CCC(C)C)c2=O)on1 [Example 472, 1-Isopentyl-N-(1-methylcyclopropyl)-3-[(3-methylisoxazol-5-yl)methyl]-2,4-dioxo-quinazoline-6-sulfonamide] |
|  | 196 nM | 144 nM | Cc1cc(Cn2c(=O)c3cc(S(=O)(=O)NC4(C)CC4)ccc3n(Cc3cnn(C(C)C)c3)c2=O)on1 [Example 473, 1-[(1-Isopropylpyrazol-4-yl)methyl]-N-(1-methylcyclopropyl)-3-[(3-methylisoxazol-5-yl)methyl]-2,4-dioxo-quinazoline-6-sulfonamide] |
| 548 nM | 331 nM |  | Cc1cc(Cn2c(=O)c3cc(S(=O)(=O)NC4(C)CC4)ccc3n(CCCC(C)C)c2=O)on1 [Example 474, 1-Isohexyl-N-(1-methylcyclopropyl)-3-[(3-methylisoxazol-5-yl)methyl]-2,4-dioxo-quinazoline-6-sulfonamide] |
| 1170 nM | 6120 nM |  | Cn1c(=O)n(CC(=O)N2CCCC2)c(=O)c2cc(S(=O)(=O)NC3(C)CC3)ccc21 [Example 475, 1-Methyl-N-(1-methylcyclopropyl)-2,4-dioxo-3-(2-oxo-2-pyrrolidin-1-yl-ethyl)quinazoline-6-sulfonamide] |
| 1340 nM | 3710 nM |  | CN(C)C(=O)Cn1c(=O)c2cc(S(=O)(=O)NC3(C)CC3)ccc2n(C)c1=O [Example 476, N,N-Dimethyl-2-[1-methyl-6-[(1-methylcyclopropyl)sulfamoyl]-2,4-dioxo-quinazolin-3-yl]acetamide] |
|  | 208 nM | 403 nM | Cc1cc(Cn2c(=O)c3cc(S(=O)(=O)NC4(C)CC4)ccc3n(CC3CC(C)(C)C3)c2=O)on1 [Example 477, 1-[(3,3-Dimethylcyclobutyl)methyl]-N-(1-methylcyclopropyl)-3-[(3-methylisoxazol-5-yl)methyl]-2,4-dioxo-quinazoline-6-sulfonamide] |
| 121 nM | 109 nM |  | Cc1ncc(Cn2c(=O)c3cc(S(=O)(=O)NC4(C)CC4)ccc3n(CC3CC(C)(C)C3)c2=O)s1 [Example 478, 1-[(3,3-dimethylcyclobutyl)methyl]-N-(1-methylcyclopropyl)-3-[(2-methylthiazol-5-yl)methyl]-2,4-dioxo-quinazoline-6-sulfonamide] |
| 3650 nM | 10200 nM |  | Cn1cc(Cn2c(=O)[nH]c3ccc(S(=O)(=O)NC4(C=O)CC4)cc3c2=O)cn1 [Example 479, N-(1-Formylcyclopropyl)-3-[(1-methylpyrazol-4-yl)methyl]-2,4-dioxo-1H-quinazoline-6-sulfonamide] |
